The record followed here is patent US20260001949A1, “NEUTRALIZATION OF ACYL-COA BINDING PROTEIN FOR THE TREATMENT OF CARDIAC DYSFUNCTION” (INSERM (INSTITUT NATIONAL DE LA SANTÉ ET DE LA RECHERCHE …, priority 2022, published 2026).

For data set [1], the system named is doxorubicin (DOX)-treated C57Bl/6J female mice. Put plainly: Anthracycline (doxorubicin)-induced cardiotoxicity model, echocardiography and organ weights. It counts as in vivo. As to conditions: chronic DOX, cumulative dose 20 mg/kg body weight IP over 4 weeks, vs saline. How it is done: Cardiac toxicity experiments: Eight-week-old C57Bl/6J female mice were purchased from Envigo (Gannat, France). Following 2 weeks of acclimatization, mice were randomized (1:1) to receive either mouse monoclonal anti-ACBP-neutralizing antibody (5 mg/kg body weight, injected intraperitoneally once per week) or mouse isotype IgG (negative control; 5 mg/kg body weight). Each group was further randomized (1:1) to receive a weekly intraperitoneal injection of saline or doxorubicin (5 mg/kg body weight; cumulative dose of 20 mg/kg body weight over 4 weeks) (Sigma, #MKCM8540). Of note, anti-ACBP was always administered 24 hours prior to doxorubicin injection. All mice used in this study were housed in a temperature-controlled environment with 12 h light/dark cycles and ad libitum access to food and water.
Echocardiography. Mice were lightly anesthetized (5% for induction; 1.5% isoflurane for maintenance) and body temperature was kept at 37° C. using a temperature-controlled heating platform. […] Ejection fraction was determined to assess systolic function, while diastolic function was evaluated using the ratio between peak early-filling velocity of transmitral flow (E) and the corresponding mitral valve annulus velocity (e′) determined using pulsed-wave and tissue Doppler imaging, respectively. […]

In data set [2] the test system is p21. As to the kind of experiment: Immunostaining of senescence marker p21 in cardiac sections of doxorubicin-treated mice. It counts as in vivo. Particulars: DOX cumulative 20 mg/kg over 4 weeks; vs saline; FIGS. 2A-2B. How it is done: Immunohistochemistry of p21: On the day of euthanasia, left ventricles were briefly rinsed with PBS and fixed for 16-24 h in a 4% formaldehyde solution (F8775, Sigma, diluted in PBS, pH=7.4). After fixation, tissues were transferred to 70% ethanol until inclusion in paraffin. Paraffin-embedded tissue were cut to 2-3 μm sections, air dried and let to dry completely at 60° C. overnight. Cell Conditioning 1 buffer (64/457,5001, Roche) was used for antigen retrieval, and casein (ref: 760-219, Roche) was used as blocking agent. The antibody directed against p21 (clone HUGO 291H/B5, CNIO) was diluted 1:50 in EnVision FLEX Antibody Diluent (K800621, Dako-Agilent). Staining was performed on the Ventana discovery XT platform for 60 minutes (ready-to-use). […] The specificity of the staining was assessed in each organ by using rat IgG isotype control (6-001-F, R&D Systems) as primary antibody.
Quantification of the p21 staining was done on the QuPath analysis software after blinding the samples names. […] Non-cardiomyocytes regions were excluded from the area of analysis and, after color deconvolution, a threshold was applied to automatically quantify the p21+ cardiomyocytes area. The average value in the 10 regions of interest was plotted for each animal, and analyzed by two-way ANOVA to determine the effect of doxorubicin treatment, ACBP/DBI neutralization, and their interaction.

For `COc1cccc2c1C(=O)c1c(O)c3c(c(O)c1C2=O)C[C@@](O)(C(=O)CO)C[C@@H]3O[C@H]1C[C@H](N)[C@H](O)[C@H](C)O1` [DOX, doxorubicin], in data set [1] (FIG. 1B), the “left ventricular ejection fraction” value is “clearly reduced”. Also, in data set [1] (FIG. 1C), the ventricular dilation result is on record as “causing ventricular dilation”. Moreover, the “p21 staining in cardiomyocytes” value in data set [2] was “increased the presence of p21 staining”.
